Values joined by “and” are separate entries in the source; they are usually repeats but may differ in a detail not shown here. Identical values can stand only once.
What follows are molecules tested against T1, Met receptor (EGFR/Met chimeric cells, EMR) (Homo sapiens, UniProt P08581) (assay: Met Autophosphorylation Assay). Conditions: not given.
T1 construct: expressed in transfected cells; the other entry of the earlier key: EGFR (P00533, Epidermal growth factor receptor)
Type: biochemical
How it was run: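 Met phosphorylation was measured by capture ELISA. Lysates (90 μg/100 μl, HNTG plus 1 mM PMSF) from transiently transfected EGFR/Met chimera (EMR) cells were bound for 60 min at room temperature to wells holding rabbit anti-Met (C-28) on goat anti-rabbit coat. Phosphotyrosine was the read-out.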

T1 sequence (P08581 with tags, fused parts or gaps): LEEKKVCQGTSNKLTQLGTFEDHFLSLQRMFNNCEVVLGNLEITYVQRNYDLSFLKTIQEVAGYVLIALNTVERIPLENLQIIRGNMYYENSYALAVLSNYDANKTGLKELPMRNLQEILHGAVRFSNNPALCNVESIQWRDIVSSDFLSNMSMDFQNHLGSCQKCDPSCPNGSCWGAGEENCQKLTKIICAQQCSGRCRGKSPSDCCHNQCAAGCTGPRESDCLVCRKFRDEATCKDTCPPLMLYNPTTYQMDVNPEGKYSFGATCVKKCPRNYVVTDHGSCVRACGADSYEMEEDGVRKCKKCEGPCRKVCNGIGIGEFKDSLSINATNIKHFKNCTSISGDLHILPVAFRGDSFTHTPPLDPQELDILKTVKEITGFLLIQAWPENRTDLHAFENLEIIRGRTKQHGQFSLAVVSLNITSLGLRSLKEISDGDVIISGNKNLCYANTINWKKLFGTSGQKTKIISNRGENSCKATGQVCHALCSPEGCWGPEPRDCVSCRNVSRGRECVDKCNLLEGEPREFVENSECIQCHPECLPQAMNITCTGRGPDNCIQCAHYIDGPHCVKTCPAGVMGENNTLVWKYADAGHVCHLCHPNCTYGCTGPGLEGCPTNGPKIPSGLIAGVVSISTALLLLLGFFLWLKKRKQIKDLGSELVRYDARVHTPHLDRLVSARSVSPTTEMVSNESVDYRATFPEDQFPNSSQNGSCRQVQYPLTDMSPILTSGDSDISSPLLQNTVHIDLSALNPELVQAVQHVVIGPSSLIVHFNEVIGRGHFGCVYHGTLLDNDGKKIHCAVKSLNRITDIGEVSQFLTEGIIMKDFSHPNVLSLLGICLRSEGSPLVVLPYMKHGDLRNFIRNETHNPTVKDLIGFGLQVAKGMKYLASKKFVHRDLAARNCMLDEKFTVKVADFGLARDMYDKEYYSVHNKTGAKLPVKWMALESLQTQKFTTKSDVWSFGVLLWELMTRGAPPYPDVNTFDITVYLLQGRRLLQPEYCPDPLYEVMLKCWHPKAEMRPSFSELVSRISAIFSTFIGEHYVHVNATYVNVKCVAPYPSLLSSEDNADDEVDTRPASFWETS

Point of comparison: `Cc1c(Br)cc(Br)c2c1C(=Cc1cc(O)c(O)c(Br)c1)C(=O)N2` [10723/H04], “Met Kinase % Inhibition (P.130)” value 95.6%. Against it:
- COc1cccc(C=C2C(=O)Nc3c(Br)cc(Br)c(C)c32)c1O [10723/H03] — lower, 69.2%
- CC(=O)Oc1ccc(C=C2C(=O)Nc3c(Br)cc(Br)c(C)c32)cc1OC(C)=O [10723/H05] — lower, 64.2%
- Cc1cc(C=C2C(=O)Nc3c(Br)cc(Br)c(C)c32)ccc1O [10723/H06] — lower, 44.9%
- Cc1c(Br)cc(Br)c2c1C(=Cc1ccccc1Br)C(=O)N2 [10723/H07] — lower, 44.9%
- Cc1c(Br)cc(Br)c2c1C(=Cc1ccc(O)cc1O)C(=O)N2 [10723/H08] — lower, 86.2%
- COc1ccc(C=C2C(=O)Nc3c(Br)cc(Br)c(C)c32)c(O)c1 [10723/H09] — lower, 62.1%
- Cc1c(Br)cc(Br)c2c1C(=Cc1cccc(Br)c1)C(=O)N2 [10723/H10] — lower, 46.4%
- Cc1c(Br)cc(Br)c2c1C(=Cc1cc(C(C)(C)C)cc(C(C)(C)C)c1O)C(=O)N2 [10723/H11] — lower, 76.2%
- Cc1c(Br)cc(Br)c2c1C(=Cc1ccc(N(C)C)c3ccccc13)C(=O)N2 [10724/H02] — lower, 51.9%
- Cc1c(Br)cc(Br)c2c1C(=Cc1ccc(O)c([N+](=O)[O-])c1)C(=O)N2 [10724/H03] — lower, 26.1%
- Cc1c(Br)cc(Br)c2c1C(=Cc1ccc([N+](=O)[O-])c(O)c1)C(=O)N2 [10724/H04] — lower, 69.3%
- Cc1c(Br)cc(Br)c2c1C(=Cc1cc3c4c(c1O)CCCN4CCC3)C(=O)N2 [10724/H05] — lower, 68.6%
- Cc1c(Br)cc(Br)c2c1C(=Cc1cc(C(C)C)c(O)c(C(C)C)c1)C(=O)N2 [10724/H06] — lower, 32.8%
- Cc1c(Br)cc(Br)c2c1C(=Cc1cc3ccccc3o1)C(=O)N2 [10724/H07] — lower, 8.6%
- COc1cc(O)c(C=C2C(=O)Nc3c(Br)cc(Br)c(C)c32)c(OC)c1 [10724/H08] — lower, 65.8%
- Cc1c(Br)cc(Br)c2c1C(=Cc1cccn1-c1ccc(Cl)cc1)C(=O)N2 [10724/H09] — lower, 4.2%
- CCc1ccc(C=C2C(=O)Nc3c(Br)cc(Br)c(C)c32)o1 [10724/H10] — lower, 72.2%
- Cc1c(Br)cc(Br)c2c1C(=Cc1sc3scc(C)c3c1C)C(=O)N2 [10724/H11] — lower, 9.8%
- Cc1c(Br)cc(Br)c2c1C(=Cc1sccc1Br)C(=O)N2 [10725/H02] — lower, 15.8%
- COc1ccc(Br)c(C=C2C(=O)Nc3c(Br)cc(Br)c(C)c32)c1O [10725/H03] — lower, 58.3%
- Cc1ccc(C=C2C(=O)Nc3c(Br)cc(Br)c(C)c32)o1 [10725/H04] — lower, 47.1%
- Cc1cc(C=C2C(=O)Nc3c(Br)cc(Br)c(C)c32)[nH]n1 [10725/H05] — lower, 20.8%
- COc1cc(C)cc(O)c1C=C1C(=O)Nc2c(Br)cc(Br)c(C)c21 [10725/H06] — lower, 33.0%
- Cc1c(Br)cc(Br)c2c1C(=Cc1ccc(N3CCN(C=O)CC3)cc1)C(=O)N2 [10725/H07] — lower, 14.2%
- Cc1c(Br)cc(Br)c2c1C(=Cc1ccc(N3CCOCC3)cc1)C(=O)N2 [10725/H08] — lower, 5.7%
- COC(=O)Cc1c(Cl)[nH]c(C=C2C(=O)Nc3c(Br)cc(Br)c(C)c32)c1C(=O)OC [10725/H09] — lower, 41.6%
- Cc1c(Br)cc(Br)c2c1C(=Cc1c(Br)cnn1-c1ccc(Cl)cc1)C(=O)N2 [10725/H10] — lower, 21.8%
- Cc1c(Br)cc(Br)c2c1C(=Cc1c[nH]cn1)C(=O)N2 [10725/H11] — lower, 17.8%
- Cc1c(Br)cc(Br)c2c1C(=Cc1ccccc1[N+](=O)[O-])C(=O)N2 [10726/H02] — lower, 66.6%
- CCOC(=O)c1[nH]c(C=C2C(=O)Nc3c(Br)cc(Br)c(C)c32)c(C(=O)OC)c1C [10726/H03] — lower, 44.8%
- Cc1cc(C=C2C(=O)Nc3c(Br)cc(Br)c(C)c32)cc(C(C)(C)C)c1O [10726/H04] — lower, 77.6%
- COc1cccc(C=C2C(=O)Nc3ccc(S(=O)(=O)N4CCOCC4)cc32)c1 [10736/F10] — lower, 65.3%
- O=C1Nc2ccc(S(=O)(=O)N3CCOCC3)cc2C1=Cc1ccccc1Cl [10736/F11] — lower, 25.2%
- O=C1Nc2ccc(CCCl)cc2C1=Cc1ccc(Cl)cc1 [10736/G02] — lower, 48.3%
- O=C1Nc2ccc(CCCl)cc2C1=Cc1ccccc1C(F)(F)F [10736/G03] — lower, 0.6%
- Cc1cccc(C=C2C(=O)Nc3ccc(CCCl)cc32)c1 [10736/G04] — lower, −6.6%

Same assay, conditions: protocol P.130

`Cc1ccc(C=C2C(=O)Nc3ccc(CCCl)cc32)cc1` [10736/G05] was tested, and the “Met Kinase % Inhibition (P.130)” value was 0.0% and 1.3%.

Point of comparison: `Cc1c(Br)cc(Br)c2c1C(=Cc1ccccc1C(F)(F)F)C(=O)N2` [10736/H03], “Met Kinase % Inhibition (P.130)” value 27.7%. Against it:
- O=C1Nc2ccc(CCCl)cc2C1=Cc1cccc(F)c1 [10736/G07] — lower, −0.2%
- O=C1Nc2ccc(CCCl)cc2C1=Cc1ccccc1F [10736/G08] — lower, 6.6%
- CCc1ccc(C=C2C(=O)Nc3ccc(CCCl)cc32)cc1 [10736/G09] — lower, 16.2%
- COc1cccc(C=C2C(=O)Nc3ccc(CCCl)cc32)c1 [10736/G10] — lower, 5.7%
- O=C1Nc2ccc(CCCl)cc2C1=Cc1ccccc1Cl [10736/G11] — lower, 10.3%
- Cc1c(Br)cc(Br)c2c1C(=Cc1ccc(Cl)cc1)C(=O)N2 [10736/H02] — higher, 62.8%
- Cc1cccc(C=C2C(=O)Nc3c(Br)cc(Br)c(C)c32)c1 [10736/H04] — lower, 27.2%
- Cc1ccc(C=C2C(=O)Nc3c(Br)cc(Br)c(C)c32)cc1 [10736/H05] — lower, 21.1%
- Cc1c(Br)cc(Br)c2c1C(=Cc1cccc(Cl)c1)C(=O)N2 [10736/H06] — lower, 27.4%
